This note sets out measurements from patent US6017719A, “Positive and positive/negative cell selection mediated by peptide release” (Nexell Therapeutics, Inc., priority 1995, dated 2000).

One data set relates to anti-CD34 antibody, 9069. Briefly: KG1a cell FACS assay: release by peptides of 9069 antibody prebound to cells. In kind it is binding, mouse. Particulars: peptide added to KG1a cells with prebound 9069; 10^5 to 10^6 molar excess, 30 min, room temperature. The procedure:
These experiments were performed following a similar procedure to the binding experiments except that the anti-CD34 antibody, 9069, was incubated with KG1a cells first, followed by addition of peptide. The experimental outline is schematically shown below:
KG1a Cell Assay to Test for Release by Peptides of 9069 Antibody Bound to Cells.
Anti-CD34 antibody, 9069 (0.i microgram) was incubated with KG1a cells (10^6) for 30 minutes at room temperature (about 22° C.). Molar excesses of 10^5 to 10^6 times the amount of peptide to antibody were tested for the ability to displace the prebound antibody. Peptides were incubated with the antibody-cell complexes for 30 minutes at room temperature (approximately 22° C.). Remaining bound antibody was detected using the FITC-goat anti-mouse IgG reagent described in Example 3.
Analysis of the variant peptide, 9069Q2, was done in parallel with the 9069N peptide. This analysis provides quality control information on reagents including the antibody, 9069, and the cells, KG1a. FACScan assays included a negative control of KG1a cells alone and positive control samples of KG1a cells with the 9069 antibody bound and detected with a secondary antibody, goat-anti-mouse IgG-FITC.
For orientation: A flow cytometer gives signals particle by particle.

In data set [1] the test system is 561 antibody. Briefly: Chemical reagents as enhancers of peptide-dependent release of CD34+ cells from the 561 antibody (FACS assay). In kind it is cell-based. How it is done:
The ability of chemical reagents to enhance peptide-dependant release of captured CD34+ cells from the 561 antibody was examined. […] Since long-term viability of the low pH-released cells was not known, conditions which could alter the pH to a more neutral value (about pH5-7) were desirable.
Reagents which were known to affect electrostatic and hydrogen bonding interactions of proteins were tested in addition to excluded-volume polymers. Included in these studies were sodium chloride, sodium acetate, magnesium chloride, calcium chloride, polyethylene glycol (PEG), ficoll, sodium succinate, sodium citrate, protamine sulphate, spermine, and polybrene.

Data set [2] has as its system 561 antibody. Nature of the data set: KG1a or tHL60 cell-based FACS assay: release of prebound 561 antibody. In kind it is binding. The text has this:
Five peptides representing hexapeptides selected from biopannings were synthesized and tested for their ability to serve as release agents in the KG1a or tHL60 cell-based FACS assay.
The peptides (see Table 27 below) were synthesized by Research Genetics and tested without purification. The 9069 antibody was used as a positive control and released with the 9069N peptide (Ac-Q Q G W F P-K D) (SEQ ID NO:9). This control served to test for the KG1a cells and the goat-anti-mouse FITC secondary detection antibody. Hexapeptide sequences identified for the 561 antibody were tested for their ability to displace prebound 561 antibody.
HPLC-purified peptides 561C and D were tested in the cell-based KG1a FACS assay.
Functional release activity of purified 561D peptide at pH 4 and 6 was tested.
Functional release activity of purified 561C and 561D peptides at pH 4, 5, 6, 7, 8, and 9 was tested.
Functional release activity of crude 561A,B,C,D, M, P, Q, CDR2H, CDR2L, CDR3H, CDR3L, 34B, 34C,34D,34E and 34F peptides adjusted to pH 7 and pH unadjusted (~pH3.8-4.3) was tested.

A short description of data set [3]: Solubilization of peptides in DPBS plus 1% HSA. In kind it is physicochemical. An excerpt:
9079A-G peptides were solubilized in Dulbecco's phosphate buffered saline (DPBS) plus 1% HSA.

A further data set has as its system CD34 cells. Nature of the data set: Stem cell selection with 9069 antibody, sheep-anti-mouse beads and releasing agent. The data set is classed as cell-based, human. Particulars: chymopapain release.
Another data set deals with CD34+ cells. Briefly: CD34+ cell isolation on automated cell separation apparatus, then culture with cytokines. In kind it is cell-based, human. How it is done: CD34+ cells were also isolated from human mobilized peripheral blood using the automated cell separation apparatus described in U.S. Pat. No. 5,536,475 and the method essentially as described in WO 95/24969 Both U.S. Pat. No. 5,536,475 and WO 95/24969 are herein expressly incorporated by reference. Chymopapain was used as the control releasing agent, and 25 mg of the peptide 9069N (Table 11) was used as the test releasing agent.

Setting [4] is: crude peptide, pH unadjusted (around pH 3.8-4.3; low pH ~4).
Setting [5] is: Table 7, mobilized peripheral blood (5.86% CD34 start).
The mark [6] stands for this setting: Table 10, mobilized peripheral blood (0.68% CD34 start).

Entries after “also recorded” stand apart in the source; their conditions may differ. Ends that are not written are not given here.

For the compound “A D G A-L I S Q V S-Q A K D (ADGALISQVSQAKD) [Peptide 9069C]”, the “% Inhibition of Binding” value in the data set on anti-CD34 antibody, 9069 came to 32%.
In the case of `CC(=O)[O-].[Na+]` [sodium acetate], the “enhancement of peptide mediated release of CD34+ selected cells” value in the data set on 561 antibody [1] was “significant activity as an enhancement reagent”.
For the compound A C K W C R (ACKWCR) [Peptide 561M], the “release activity on prebound 561 antibody” value in the data set on 561 antibody [2] (crude peptide, pH 7) is on record as “none of these peptides showed release activity; also recorded: did not show release activity”; with 561 antibody [2] (setting [4]) it was “showed functional release activity; also recorded: showed significant release activity”; in the data set on 561 antibody [2] (pH 6), “did not show release activity”. Further, the “release of 561 antibody prebound to KG1a or tHL60 cells (in words)” value in the data set with 561 antibody [2] (crude peptides, pH not stated) is reported as “able to release 561 antibody prebound to KG1a or tHL60 cells”.
On to IQEFGVKD [Peptide 9079F, IQEFGV--KD], for which the solubility entry in data set [3] is recorded as “solubilized”.
Still for that read-out and setting: under RSFYYRD [Peptide 9079E, RSFYYR--D] stands “insoluble”.
On to YSRLGFKD [Peptide 9079B, YSRLGF--KD], for which the solubility entry in data set [3] is “solubilized”.
Take `[Cl-].[Cl-].[Mg+2]` [magnesium chlordie, magnesium chloride]: the “enhancement of peptide mediated release of CD34+ selected cells” value in the data set on 561 antibody [1] was “Less dramatic results”.
Chymopapain: the “% CD34 CELLS Negative Fraction” value with CD34 cells (setting [5]) is given as 2.5%; in the data set on CD34 cells (Table 8, mobilized peripheral blood (1.05% CD34 start)) it was 0.16%; in the data set with CD34 cells (Table 9, bone marrow (3.66% CD34 start)) it was 0.34%; with CD34 cells (setting [6]), 0.12%. The “% CD34 CELLS Positive Fraction” value in the data set on CD34 cells (setting [5]) is given as 94%. In the data set with CD34 cells (setting [5]), the “% Capture” value is listed as 62%. Also, the “% Yield” value with CD34 cells (setting [6]) worked out at 68%. Besides, the “purity of the positively selected CD34+ cells” value in the data set on CD34+ cells (mobilized peripheral blood, 25 mg peptide 9069N or chymopapain control) is recorded as “greater than 90%”. Also, in the data set with CD34+ cells (released CD34+ cells of first experiment, culture with cytokines for 12 days), the “expansion in cell number” value was 68 fold.
Take “KDVYSLWPKD [Peptide 9079H, KD--VYSLWP--KD]”: the solubility result in data set [3] was “solubilized”.
Same read-out and setting: under NLQGEFKD [Peptide 9079D, NLQGEF--KD] stands “solubilized”.
The same measure, in the same setting: the entry for QYTQPKD [Peptide 9079C, QYTQPK--D] is “solubilized”; for PGSPLGKD [Peptide 9079A, PGSPLG--KD] it is “solubilized”.
For the compound “A I Y P G D G D T R Y T Q K F V V (AIYPGDGDTRYTQKFVV) [Peptide 561CDR2H]”, the “release activity on prebound 561 antibody” value in the data set with 561 antibody [2] (crude peptide, pH 7) is given as “none of these peptides showed release activity; also recorded: did not show release activity”; with 561 antibody [2] (setting [4]), “showed functional release activity; also recorded: showed significant release activity”; with 561 antibody [2] (pH 6) it was “did not show release activity”.
